Measurements published in patent US9540400B2, “Compounds as diacylglycerol acyltransferase inhibitors” (GlaxoSmithKline Intellectual Property (No. 2) Limited, priority 2011, dated 2017).

Biological target: T1, Human DGAT1 (Homo sapiens, UniProt O75907)
T1 construct: made in house; host or cells: Sf9 insect cells (baculovirus); microsomes
T1 sequence (O75907 1-488): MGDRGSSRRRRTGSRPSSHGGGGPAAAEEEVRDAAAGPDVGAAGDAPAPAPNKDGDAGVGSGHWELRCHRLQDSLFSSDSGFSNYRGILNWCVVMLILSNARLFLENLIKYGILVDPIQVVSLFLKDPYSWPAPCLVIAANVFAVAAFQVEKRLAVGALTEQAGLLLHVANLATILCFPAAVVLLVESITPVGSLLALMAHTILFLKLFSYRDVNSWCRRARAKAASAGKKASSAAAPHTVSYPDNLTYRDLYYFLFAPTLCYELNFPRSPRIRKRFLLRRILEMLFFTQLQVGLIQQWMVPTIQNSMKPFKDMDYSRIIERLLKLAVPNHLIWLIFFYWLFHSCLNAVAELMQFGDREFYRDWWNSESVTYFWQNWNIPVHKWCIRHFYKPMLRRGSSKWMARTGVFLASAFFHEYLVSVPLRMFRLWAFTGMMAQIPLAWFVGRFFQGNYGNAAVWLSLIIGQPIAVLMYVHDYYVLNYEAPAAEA
Assay: hDGAT1 lipid extraction (LE) assay, inhibition of triacylglycerol product formation
Type: biochemical
Settings: human DGAT1 microsomes from Sf9 cells; radiolabelled tridecanoylglycerol extraction
Method: Human DGAT1 was expressed in Sf9 insect cells using a baculovirus expression system. Microsomes were prepared and used as enzyme for in vitro inhibition testing in either of two formats measuring production of coenzyme A or tridecanoylglycerol product, respectively. All steps were performed at 21-23° C. All data for DGAT1 inhibition by test compounds were collected under conditions where product formation was linear with reaction time.
For inhibition of triacylglycerol product formation, 11 uL reactions were run in white Polyplate-384 (PerkinElmer6007300) starting with a 30 minute pre-reaction incubation of 5 uL of 2.2× enzyme and 1 uL of 100% DMSO containing test compound or control compound, {4-[4-(4-amino-7,7-dimethyl-7H-pyrimido[4,5-b][1,4]oxazin-6-yl)phenyl]cyclohexyl}acetic acid. Some assays were performed with inclusion of didecanoylglycerol in the pre-reaction incubation of test compounds and enzyme. Reactions were initiated after 30 minute pre-reaction incubation via addition of 5 uL of 2.2× substrate. Final reaction conditions consisted of 50 mM HEPES pH 7.5, 2 mM MgCl2, 1 mM CHAPS, 25 uM didecanoylglycerol, 0.5 uM decanoyl-CoA, 0.3 nCi/uL [^14C]-decanoyl-CoA or 0.5 nCi/uL [^3H]-decanoyl-CoA, 0.05-4 ug/mL microsomal protein, and 1% DMSO. Following 60 minute reaction incubation, reactions were stopped with 40 uL of 45% isopropanol and 50 mM sodium carbonate in water and mixed. Extraction of tridecanoylglycerol product was accomplished via addition of 30 uL Microscint-E (Perkin Elmer) and 2 hours of incubation (sealed). Plates were read on a Microbeta Microplate reader. Inhibition was normalized to controls containing DMSO or 10 uM {4-[4-(4-amino-7,7-dimethyl-7H-pyrimido[4,5-b][1,4]oxazin-6-yl)phenyl]cyclohexyl}acetic acid. IC50s were fitted using GraphPad Prism to a sigmoidal dose response.

IC50 | SMILES
201 nM | Nc1ncnc2c1C(=O)N(c1ccc3ncn(Cc4ccccc4)c(=O)c3c1)CCO2 [Example 97, 4-Amino-6-(3-benzyl-4-oxo-3,4-dihydroquinazolin-6-yl)-7,8-dihydropyrimido[5,4-f][1,4]oxazepin-5(6H)-one]
623 nM | Nc1ncnc2c1C(=O)N(c1ccc3nc[nH]c(=O)c3c1)CCO2 [Example 98, 4-Amino-6-(4-oxo-3,4-dihydroquinazolin-6-yl)-7,8-dihydropyrimido[5,4-f][1,4]oxazepin-5(6H)-one]
